We go through four compounds from ChEMBL document CHEMBL1201862, “PubChem BioAssay data set” (2004).

Molecules are shown by their SMILES. “And” between values parts separate entries of the source, which are not always exact repeats. Identical values can stand only once.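 Cells were grown in 96-well plates and exposed to each compound for 48 hours at five concentrations; endpoints were interpolated linearly between bracketing concentrations, or set to the highest concentration if not reached. At the GI50, growth is halved.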 The source made the active and inactive calls. No stated cut-off is given here; in the data, active = GI50 up to about 1.1 µM and inactive = higher.

Assay in all cases: inhibition of tumour cell growth, NCI panel, 48 h
In test [1] the test system is K562.
Test [2] concerns U-251.
In test [3] the test system is HT-29.
For test [4], the system named is DU-145.
The test system of test [5] is NCI-H460.
Test [6] deals with LOX IMVI.
For test [7], the system named is HCT-15.
Test [8] concerns SK-OV-3.
For test [9], the system named is HL-60.
Test [10] relates to RXF 393.
The subject of test [11] is SW-620.
For test [12], the system named is OVCAR-4.
The subject of test [13] is M14.
The subject of test [14] is SF-539.
Test [15] has as its system UACC-62.
The test system of test [16] is NCI-H226.
Test [17] deals with Malme-3M.
Test [18] deals with A498.
In test [19] the test system is MOLT-4.
Test [20] deals with OVCAR-5.

Consider `COc1cc(-c2cc(-c3ccccc3)nc(-c3c(OC)ccc4c(C)cc(=O)oc34)c2)cc(OC)c1OC`, for which the GI50 in test [1], in [2], in [3], in [4], in [5] and in [6] was > 100 µM (inactive) in each case. In addition, the GI50 in test [7] is more than 100 µM; in test [8], > 100 µM (inactive); in [9], 13.6 µM (inactive); in test [10] it was > 100 µM (inactive); in [11] it was > 100 µM (inactive); in [12] it was > 100 µM (inactive). Further, the GI50 in test [13], in [14], in test [15], in test [16], in [17] and in test [18] was > 100 µM (inactive) each time. Besides, in [19], the GI50 is > 100 µM (inactive).

Turning to `Cc1ccc(C(=O)N/N=C2/C(=O)c3c4ccccc4cc4cccc2c34)cc1`, the GI50 is > 21.1 µM (inactive) in test [1]; 21 µM (inactive) in [2]; 21.6 µM (inactive) in [3]; 3.44 µM (inactive) in test [4]; 15 µM (inactive) in test [5]; 12.4 µM (inactive) in test [6]. Further, the GI50 in test [7] was 20.6 µM; in test [8] it was 23.7 µM (inactive); in test [9], 10.2 µM (inactive); in test [20], > 70 µM (inactive); in test [10], 12.6 µM (inactive); in test [11] it was 8.71 µM (inactive). Further, the GI50 was 18.2 µM (inactive) in [12]; 31.4 µM (inactive) in [13]; 15.5 µM (inactive) in test [14]; 26.9 µM (inactive) in test [15]; > 69.3 µM (inactive) in [16]; 18.8 µM (inactive) in [17]. Also, in [18], the GI50 was > 100 µM (inactive).

On to `Cc1ccc(P(c2ccc(C)cc2)c2ccc(C)cc2)cc1`, for which the GI50 in [1] is 4.83 µM (inactive); in [2], 14.3 µM (inactive); in [3], 19.4 µM (inactive); in test [4], 16.5 µM (inactive); in test [5], 12.9 µM (inactive); in [6], 14.9 µM (inactive). Moreover, the GI50 is 20.2 µM in test [7]; 30.4 µM (inactive) in test [8]; 28.8 µM (inactive) in [9]; 21.3 µM (inactive) in test [20]; 15.5 µM (inactive) in [10]; 26.2 µM (inactive) in test [11]. Also, the GI50 is 19.8 µM (inactive) in test [12]; 19.3 µM (inactive) in test [13]; 21.6 µM (inactive) in test [14]; 21.6 µM (inactive) in [15]; 18.3 µM (inactive) in [17]; 27.1 µM (inactive) in test [18]. Besides, the GI50 in test [19] is 16.5 µM (inactive).

For `OC(CBr)C(O)C(O)C(O)CBr` (centres undefined), the GI50 in test [1] was > 87.9 µM (inactive); in test [2] it was > 43.2 µM (inactive) and > 63.8 µM (inactive); in [3], > 100 µM (inactive) and > 56 µM (inactive); in [4] it was 12.7 µM (inactive); in test [5] it was 8.3 µM (inactive) and 10.7 µM (inactive); in test [6], 51.6 µM (inactive) and 40.9 µM (inactive). Further, the GI50 in [8] is > 55.1 µM (inactive) and > 53.1 µM (inactive); in test [9], 8.73 µM (inactive) and 13.3 µM (inactive); in [20] it was > 57 µM (inactive); in [10] it was > 100 µM (inactive) and > 88.9 µM (inactive); in test [11], > 87.7 µM (inactive); in test [12] it was > 100 µM (inactive) and > 81.5 µM (inactive). Besides, the GI50 in test [13] was 28.1 µM (inactive); in [14], 46.7 µM (inactive) and 49.8 µM (inactive); in test [16], > 100 µM (inactive) and > 74.1 µM (inactive); in [17], > 100 µM (inactive) and > 85.5 µM (inactive); in test [18], > 61.9 µM (inactive).
